Test results from patent US11952554B2, “Alkyl polyglycoside-containing cleaning formulations for chemically sensitive individuals” (Living Clean NZ, Ltd., priority 2021, dated 2024).
Each block holds one molecule with its values, some of them ahead of it.

Tests used:
[1] = tested on: chemically sensitive individuals (MCS); parameters: species or system human; conditions: in vivo
Experimental: Once candidate ingredients are identified and tested as described above, they are evaluated for use in potential cleaning formulations using a blind study protocol. The blind studies used in the course of the instant work were comprised of a specially selected panel of volunteers. […] A panel comprised of just such individuals was used for many aspects of the studies conducted herein. […] See E. A. Krusemark and W. Li, “Enhanced olfactory sensory perception of threat in anxiety: An event-related fMRI study,” Chemosensory Perception, 5 (2012) 37-45; the article in its entirely is herein incorporated by reference.
In the course of the instant work, at least one individual with MCS was used to rank prospective ingredients for acceptability in cleaning formulations based upon sensory responses, which included olfactory as well as skin contact. Instrumental analyses were then implemented to correlate results with sensory ratings from the human panel, and to identify and/or quantify the chemicals detected and deemed to be potentially harmful to humans. Ingredients that were deemed acceptable by the human panel and the instrumental analyses were then used as raw materials for cleaning products described herein. It is believed that this level of pre-screening and testing represents a first in the world for consumer cleaning product formulations work, and has provided an unprecedented level of safety testing for consumer products. Accordingly, in one aspect of the technology newly presented and described herein, a method for providing cleaning formulations for use by the general public and chemically-sensitized individuals, in particular, involves:
Without being bound by theory, it is believed that this phenomenon is due to the non-exact nature of the BCI or RCI measurement (±3% by weight) vis-à-vis the low amounts of contaminants, perhaps much less than 1% by weight, that are present in certain ingredients. To test this hypothesis, a number of chemically sensitive individuals assessed four types of alkyl polyglucosides, or APGs, from three manufacturers, all of which have an apparent BCI/RCI of 100%. Each of the APG candidates was rated on a 3-point index: Acceptable, Marginal, and Unacceptable. The Marginal and Unacceptable candidates were then analyzed for the presence of trace contaminants.
In the manufacture of surfactants, it can be assumed that a small amount, albeit a significant one, of feedstock remains unreacted. This amount can often be less than 1% by weight, but to individuals who are sensitive to such species, the impact can be significant. […] As such, a number of raw materials were evaluated by a number of chemically sensitive individuals for acceptability using the same scale as above.

[2] = cited from earlier work

Acceptability Rating [1]: Unacceptable
Molecule: CCCCCCCCOS(=O)(=O)[O-].[Na+] [Sodium octyl sulfate (from bio-basis), Sodium octyl sulfate]

Molecule: ClC(Cl)Cl [Trichloromethane (chloroform), Trichloromethane]
CAA-HAP listing ([2]; Clean Air Act-Hazardous Air Pollutant): ✓ | CAA-TFS listing ([2]; Clean Air Act-Toxic and Flammable Substances for Accidental Release Prevention): ✓ | CWA listing ([2]; Clean Water Act-Priority Pollutant): ✓ | CERCLA listing ([2]; Comprehensive Environmental Response, Compensation, and Liability Act-Hazardous Substance): ✓ | EPCRA listing ([2]; Emergency Planning & Community Right to Know Act-Toxic Release Inventory Chemical): ✓ | OSHA listing ([2]; Occupational Safety and Health Act-Air Contaminants): ✓ | RCRA listing ([2]; Resource Conservation and Recovery Act-Hazardous Constituents): ✓

Acceptability Rating [1]: Unacceptable
Molecule: C8-10 alkyl polyglucoside

Acceptability Rating [1]: Acceptable-
Molecule: C10-16 alkyl polyglucoside

Acceptability Rating [1]: Acceptable
Molecule: Sodium coco sulfate
